The source of these data is patent publication US20050208037A1, “Thioredoxin increases redox-cycling of anticancer agents thereby sensitizes cancer cells to apoptosis” (Board of Regents, The University of Texas System, priority 2003, published 2005).

Data set [1] has as its target T1, cytochrome P450 reductase (Oryctolagus cuniculus, UniProt P00389).
T1 construct: purchased Sigma Chemicals (St. Louis, Mo.); host or cells: rabbit liver
T1 sequence (P00389 1-679): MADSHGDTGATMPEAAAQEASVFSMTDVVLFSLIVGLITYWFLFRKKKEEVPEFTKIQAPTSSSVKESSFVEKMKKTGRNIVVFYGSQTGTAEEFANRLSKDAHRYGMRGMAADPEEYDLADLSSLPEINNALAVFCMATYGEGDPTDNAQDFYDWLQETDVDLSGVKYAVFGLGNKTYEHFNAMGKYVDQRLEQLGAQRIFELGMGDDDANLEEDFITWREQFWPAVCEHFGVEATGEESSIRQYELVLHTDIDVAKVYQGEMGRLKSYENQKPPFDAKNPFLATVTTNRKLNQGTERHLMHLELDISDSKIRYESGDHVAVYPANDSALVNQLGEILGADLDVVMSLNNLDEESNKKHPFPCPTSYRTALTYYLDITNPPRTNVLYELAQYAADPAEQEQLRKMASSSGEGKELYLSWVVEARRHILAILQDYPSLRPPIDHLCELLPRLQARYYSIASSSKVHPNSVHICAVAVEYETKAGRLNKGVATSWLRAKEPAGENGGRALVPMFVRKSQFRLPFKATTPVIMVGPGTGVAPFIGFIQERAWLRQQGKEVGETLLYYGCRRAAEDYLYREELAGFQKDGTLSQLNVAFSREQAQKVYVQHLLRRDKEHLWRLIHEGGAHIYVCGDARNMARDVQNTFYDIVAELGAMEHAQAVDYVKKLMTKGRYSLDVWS
Put plainly: Cytochrome P450 reductase mediated SOD-inhibitable superoxide generation. The class given is biochemical, rabbit. The settings on record: 10 μM doxorubicin, Trx-SH alone as electron donor, absence of NADPH. The method, then:
Superoxide detection by cytochrome c reduction assay. Superoxide (O2—) generated in the process of redox-cycling was detected by SOD inhibitable rate of ferricytochrome c reduction (Das et al., 2000). […] Reaction blank contained potassium phosphate buffer, cytochrome c and NADPH with or without SOD, and controls included 0.35-0.7 μg TR and /or Trx in buffer. All reactions were performed in triplicate.

For data set [2] the following is noted: cited from earlier work.
For data set [3], the target named is T2, E. coli thioredoxin (Escherichia coli, UniProt P0AA25).
T2 construct: purchased Promega Inc (thioredoxin); American Diagnostica Inc (thioredoxin reductase)
As to the kind of experiment: Thioredoxin redox state by carboxymethylation and western analysis. The class given is biochemical. The settings on record: TR and doxorubicin. The method, then: Carboxymethylation of thioredoxin. In order to analyze the possible role of thioredoxin in the redox-cycling of anthracyclines the redox status of thioredoxin was determined by carboxymethylation at the end of assay. Carboxymethylation was done as described previously (Das et al., 1997). Equal volume of carboxymethylation buffer (0.1 M Tris; pH 8.8, 12 mg/ml iodoacetic acid, 3 mM EDTA, 7 M guanidine hydrochloride, and 0.5% Triton X-100, equilibrated with nitrogen for 1 h) was added and incubated at 37° C. in the dark for 45 min. After incubation the excess reagent was removed using Sephadex G-25 spin column, and the elute was used for western blot detection of thioredoxin.
Western analysis of thioredoxin redox state. […] The protein was transferred to PVDF membrane using a miniprotein transblot apparatus (Bio-Rad). The PVDF membrane was washed and incubated with mouse anti-E. coli Trx IgG (MBL, Nagoya, Japan). After washing, the blot was incubated with anti Mouse IgG- horseradish peroxidase conjugate for 1 h at room temperature. Binding of secondary antibody was detected using an enhanced chemiluminescence (ECL Plus) detection system (Amersham Pharmacia Biotech, Piscataway, N.J.). Western blot was quantified using densitometric analysis software (NIH Image 1.61).

Data set [4] relates to Trx9 cells (MCF-7 clones expressing thioredoxin). As to the kind of experiment: Superoxide production in cell lysate by SOD-inhibitable reduction of ferricytochrome c. It is filed as biochemical, human. The settings on record: Trx9 compared to vector-transfected cells; 10 μM drug. The method, then: Determination of superoxide production by reduction of ferricytochrome c. Superoxide production was measured as superoxide dismutase (SOD) inhibitable reduction of ferricytochrome c (Azzi et al. 1975). Cells were sonicated in potassium phosphate buffer (0.05M, pH 7.8 plus 1 mM EDTA), centrifuged and the supernatant was used for the assay. To determine the superoxide generation in the cell lysate, the supernatant was incubated with 10 μM drug and 10 μM cytochrome c, with or without 1U SOD to determine SOD inhibitable rate. The specificity of thioredoxin mediated superoxide generation in the supernatant was detected by pre-incubation of cell lysates with anti-human thioredoxin antibody (American Diagnostica, Greenwich, Conn.) for 15 min. All reactions were performed in triplicate. The reduction of ferricytochrome c was measured both in kinetic and end point mode with path check on for 1 hr duration at a wavelength of 550 nm using a Spectramax 190 plate reader (Molecular Devices). Total protein was quantified using Bradford protein assay (Biorad) and the superoxide generation was determined per milligram of protein in the extracts.

Data set [5] deals with T3, E. coli thioredoxin reductase-thioredoxin system (Escherichia coli, UniProt P0A9P4).
T3 construct: purchased American Diagnostica Inc (thioredoxin reductase); Promega Inc (thioredoxin)
Put plainly: Superoxide detection by cytochrome c reduction assay with thioredoxin system. It is filed as biochemical. The method, then:
Superoxide detection by cytochrome c reduction assay. Superoxide (O2—) generated in the process of redox-cycling was detected by SOD inhibitable rate of ferricytochrome c reduction (Das et al., 2000). The reaction mixture contained 0.05 M potassium phosphate buffer (pH 7.78), 1 mM EDTA, 10 μM cytochrome c and 200 μM NADPH. […] The rate of […] of cytochrome c was measured at 550 nm for 0-15 minutes using Shimadzu UV-1601PC in kinetic mode. Reaction blank contained potassium phosphate buffer, cytochrome c and NADPH with or without SOD, and controls included 0.35-0.7 μg TR and /or Trx in buffer. All reactions were performed in triplicate.

The subject of data set [6] is Trx9 cells (MCF-7 clones expressing thioredoxin). Put plainly: In situ detection of ROS by DCF-DA fluorescence. The class given is cell-based, human. Conditions: Trx9 compared to vector cells. The method, then: In situ detection of superoxide by fluorescent probe DiCarboxyFluorescein-DiAcetate (DCF-DA). Cells were grown in chambered glass slides (Nunc) to a final density of 25,000 cells per well.

Data set [7] relates to A549 cells. As to the kind of experiment: ROS detection by DCF-DA fluorescence. The class given is cell-based, human. The method, then: In situ detection of superoxide by fluorescent probe DiCarboxyFluorescein-DiAcetate (DCF-DA). […] Cells were pre-incubated with 20 μM DCF-DA (Sigma, St. Louis, Mo.) in 20 mM Hepes in Phosphate Buffered Saline (PBS) containing bovine serum albumin (BSA, 5 mg/ml) at 37° C. for 30 min followed by washing with PBS buffer, and the drug was added and observed for 10-15 min in a Nikon laser confocal microscope using laser beam wavelength 488 nm analyzed by Ultraview software (Perkin-Elmer).

Data set [8] deals with p53 in A549 cells. Put plainly: EMSA of p53 DNA binding. The class given is cell-based, human. The settings on record: E. coli Trx 32 μM 16 h followed by daunomycin 1 μM 4 h. The method, then: Nuclear Extract preparation. Nuclear extract was prepared as described previously (Das, 2001). […] The extracts were then centrifuged at 14,000 rpm for 25 min and the supernatant was saved as nuclear extract in −70° C. for further experiments. Protein was quantified using Bradford protein assay (Biorad).
Electrophoretic Mobility shift assay (EMSA). For the EMSA the p53 consensus oligonucleotide was obtained from Genosys 5′-[…]-3′ (SEQ ID NO:9) and end labeled using T4 Poly nucleotide kinase (New England Biolabs, Beverly, Mass.) and [γ-^32P] ATP (Perkin Elmer, Boston, Mass.) in 10× kinase buffer supplied with the enzyme. […] The nuclear protein was separated by electrophoresis using 4% native polyacrylamide gel and 0.25× of TBE (Tris-Borate-EDTA) as running buffer. The gels were dried and exposed to Kodax Biomax X-ray film overnight.
In general terms: In EMSA bound probe runs differently from free probe, usually more slowly.

Data set [9] concerns the target T4, human thioredoxin reductase (Homo sapiens, UniProt Q16881).
T4 sequence (Q16881 151-649 limits assumed): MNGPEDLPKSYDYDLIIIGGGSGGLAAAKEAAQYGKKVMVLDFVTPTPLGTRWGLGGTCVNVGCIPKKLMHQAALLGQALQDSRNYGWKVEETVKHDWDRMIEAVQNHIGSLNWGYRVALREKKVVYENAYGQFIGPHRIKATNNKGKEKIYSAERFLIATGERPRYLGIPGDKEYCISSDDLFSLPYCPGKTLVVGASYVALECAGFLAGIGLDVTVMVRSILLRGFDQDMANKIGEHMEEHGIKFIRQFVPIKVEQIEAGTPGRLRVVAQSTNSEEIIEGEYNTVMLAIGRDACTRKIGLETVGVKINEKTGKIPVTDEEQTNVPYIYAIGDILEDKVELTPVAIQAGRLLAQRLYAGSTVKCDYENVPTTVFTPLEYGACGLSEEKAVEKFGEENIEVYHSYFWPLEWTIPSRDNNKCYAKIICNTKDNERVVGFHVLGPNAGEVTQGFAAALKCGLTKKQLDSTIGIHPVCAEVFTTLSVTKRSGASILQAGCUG
Conditions: cited from earlier work.

The test system of data set [10] is A549 cells. Conditions: E. coli thioredoxin 32 μM 16 hr followed by daunomycin 1 μM 4 hr.
Text: TUNEL assay. Apoptotic cells were detected using In Situ Cell Death detection, POD kit (Roche Molecular Biochemicals, Indianapolis, Ind.). Apoptotic DNA strand breaks were identified by labeling 3′-OH termini with fluorescein-dUTP using Terminal deoxy Transferase as per manufacturer's protocol. For this assay cells were allowed to adhere overnight in chambered glass slides (Nunc) to a final density of 25,000 cells per well. Followed by treatment with the appropriate concentration of drugs the media was removed and washed twice with PBS containing 1% BSA and the cells fixed in 4% paraformaldehyde for 30 min and washed with PBS containing 1% BSA. The cells were then permeabilized with 0.1% Triton X-100 in 0.1% sodium citrate for 2 min on ice and washed twice with PBS containing 1% BSA. The labeling reaction was performed using FITC labeled dUTP along with other nucleotides by terminal deoxynucleotidyl transferase for 60 mins in dark at 37° C. in humidified chamber. The cells were washed with PBS-1% BSA, mounted onto a slide, and the incorporated fluorescein-dUTP was analyzed using Nikon laser confocal microscope.

Where a name gives a salt, the structure may show the parent alone.

T3 sequence (P0A9P4 2-321): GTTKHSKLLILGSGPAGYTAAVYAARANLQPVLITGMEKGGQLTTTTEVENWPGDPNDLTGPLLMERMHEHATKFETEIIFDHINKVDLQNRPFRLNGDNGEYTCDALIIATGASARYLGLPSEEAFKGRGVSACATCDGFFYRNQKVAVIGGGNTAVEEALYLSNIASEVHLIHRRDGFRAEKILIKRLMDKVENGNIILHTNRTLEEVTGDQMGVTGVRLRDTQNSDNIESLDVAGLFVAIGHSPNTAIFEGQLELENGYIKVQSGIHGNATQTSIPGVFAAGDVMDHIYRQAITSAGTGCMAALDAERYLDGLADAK
T2 sequence (P0AA25 2-109): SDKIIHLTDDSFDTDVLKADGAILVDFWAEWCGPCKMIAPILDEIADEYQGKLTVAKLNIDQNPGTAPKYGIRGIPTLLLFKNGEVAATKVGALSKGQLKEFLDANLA

Regarding `COc1cccc2c1C(=O)c1c(O)c3c(c(O)c1C2=O)C[C@@](O)(C(=O)CO)C[C@@H]3O[C@H]1C[C@H](N)[C@H](O)[C@H](C)O1` [doxorubicin, 5,12-Naphthacenedione, (8 s-cis)-10-[(3-amino-2,3,6-trideoxy-a-L-lyxo-hexopyranosyl)oxy]-7,8,9,10-tetrahydro-6,8,11-trihydroxy-8-(hydroxyacetyl)-1-methoxy-hydrochloride], the “SOD inhibitable O2— generation” value in data set [1] is “generated O2—”. Further, in [2] (in vivo), the “excreted into the urine” value is “a few percent”. Besides, the elimination half-life entry in [2] (intravenous) is reported as “about 30 hr”. In addition, the absorption entry in data set [2] (oral) is “poorly absorbed”. Further, the “level of Trx-S2 (oxidized thioredoxin)” value in data set [3] (28.7% without doxorubicin) came to 53%. Also, the “level of reduced thioredoxin” value in data set [3] (Trx, 71.3% in thioredoxin-thioredoxin reductase system only) is given as 47%. Moreover, the “O2— production” value in data set [4] was “significantly higher level of O2—”. Also, in data set [5] (drug 10 μM with thioredoxin reductase alone), the “levels of O2— generated” value is listed as “significantly higher levels of O2—”. In data set [5] (drug alone, 10 μM), the “SOD inhibitable rate of ferricytochrome c reduction” value was “did not show significant level”. Further, the “rate of superoxide generation as compared to daunomycin” value in [5] (thioredoxin reductase alone or thioredoxin reductase-thioredoxin system, 10 μM drug) is reported as “two fold increase”. Moreover, the “DCF-DA fluorescence (oxidation of DCF-DA)” value in data set [6] is given as “enhanced fluorescence”.

Regarding “E. coli thioredoxin: E. coli thioredoxin obtained from Promega; sequence of SEQ ID NO:4”, the “ROS generation (DCF-DA)” value in data set [7] (E. coli thioredoxin only (32 μM, 16 hr)) is reported as “No ROS were detected”; in [7] (pretreated with E. coli thioredoxin (32 μM, 16 hr) followed by 1 μM daunomycin), “significantly higher level of ROS generation”. Also, the “p53 DNA binding” value in data set [8] is recorded as “increased p53 DNA binding”. Further, in data set [5] (addition of 3.2 μM Trx to thioredoxin reductase with daunomycin or doxorubicin), the “levels of O2— generated” value is “further enhanced the levels of O2—”. For the same molecule, the “rate of O2— generation with doxorubicin” value in data set [5] (thioredoxin from 1.6 to 6.4 μM, 0.35 μg thioredoxin reductase, 10 μM doxorubicin) was “proportional increase in the rate of O2— generation”. In addition, the “Km as a substrate for human thioredoxin reductase” value in data set [9] is 35 µM. In addition, in data set [10], the TUNEL positive nuclei entry was “increase in TUNEL positive nuclei”.
